Earlier results in article PMC5742115, “Pharmacophore Modeling and in Silico/in Vitro Screening for Human Cytochrome P450 11B1 and Cytochrome P450 11B2 Inhibitors” (Frontiers in Chemistry, 2017).
pIC50: −log10 of the molar value. Where two headings read alike, the source gives them in different places.

Columns and labels:
[1] = tested on: CYP11B1; conditions: reported activity, supplementary Table 1, read-out: CYP11B1 IC50, cited from earlier work
[2] = tested on: CYP11B2; conditions: reported activity, supplementary Table 1, read-out: CYP11B2 IC50, cited from earlier work

SMILES | pIC50 ([1]; ref Lucas et al., 2011) | pIC50 ([2]; ref Lucas et al., 2011) | pIC50 ([1]; ref Yin et al., 2012) | pIC50 ([2]; ref Yin et al., 2012) | also measured
O=C1CCc2cc(-c3cncc(-c4ccccc4F)c3)cc3c2N1CC3 [CHEMBL1765220] | 7.37 | 9.15 |  |  | 
O=C1CCc2cc(-c3cncc(-c4cccc(F)c4)c3)cc3c2N1CC3 [CHEMBL1765221] | 6.31 | 8.85 |  |  | 
O=C1CCc2cc(-c3cncc(-c4ccc(F)cc4)c3)cc3c2N1CC3 [CHEMBL1765222] | 7.40 | 9.05 |  |  | 
O=C1CCc2cc(-c3cncc(-c4cc(F)ccc4F)c3)cc3c2N1CC3 [CHEMBL1765223] | 6.74 | 8.44 |  |  | 
O=C1CCc2cc(-c3cncc(-c4ccc(F)c(F)c4)c3)cc3c2N1CC3 [CHEMBL1765224] | 6.30 | 8.64 |  |  | 
O=C1CCc2cc(-c3cncc(-c4cc(F)cc(F)c4)c3)cc3c2N1CC3 [CHEMBL1765225] | 5.76 | 7.74 |  |  | 
COc1ccccc1-c1cncc(-c2cc3c4c(c2)CCN4C(=O)CC3)c1 [CHEMBL1765226] | 6.89 | 8.62 |  |  | 
COc1cccc(-c2cncc(-c3cc4c5c(c3)CCN5C(=O)CC4)c2)c1 [CHEMBL1765227] | 5.86 | 8.34 |  |  | 
COc1ccc(-c2cncc(-c3cc4c5c(c3)CCN5C(=O)CC4)c2)cc1 [CHEMBL1765228] | 7.68 | 8.85 |  |  | 
O=C1CCc2cc(-c3cncc(-c4cccc(O)c4)c3)cc3c2N1CC3 [CHEMBL1765229] | 7.36 | 8.92 |  |  | 
O=C1CCc2cc(-c3cncc(-c4cccc(OC(F)(F)F)c4)c3)cc3c2N1CC3 [CHEMBL1765230] | 5.69 | 7.80 |  |  | 
O=C1CCc2cc(-c3cncc(-c4cccc(C(F)(F)F)c4)c3)cc3c2N1CC3 [CHEMBL1765231] | 5.33 | 7.48 |  |  | 
S=C1CCc2cc(-c3cccnc3)cc3c2N1CC3 [CHEMBL1765232] | 6.48 | 8.92 |  |  | 
Brc1ncccc1Cn1ccnc1 [CHEMBL2011242] |  |  |  |  | pIC50 ([1]; ref Hille et al., 2011a): 7.21; pIC50 ([2]; ref Hille et al., 2011a): 6.04
Fc1ccccc1-c1ccc(Cn2ccnc2)cn1 [CHEMBL2011244] |  |  |  |  | pIC50 ([1]; ref Hille et al., 2011a): 7.14; pIC50 ([2]; ref Hille et al., 2011a): 5.76
Oc1ccc(-c2ccc(Cn3ccnc3)cn2)cc1F [CHEMBL2011246] |  |  |  |  | pIC50 ([1]; ref Hille et al., 2011a): 7.77; pIC50 ([2]; ref Hille et al., 2011a): 6.63
c1ccc2c(-c3ccc(Cn4ccnc4)cn3)cccc2c1 [CHEMBL2011253] |  |  |  |  | pIC50 ([1]; ref Emmerich et al., 2013): 7.17; pIC50 ([1]; ref Hille et al., 2011a): 7.38; pIC50 ([2]; ref Emmerich et al., 2013): 6.18; pIC50 ([2]; ref Hille et al., 2011a): 5.68
c1ccc2c(-c3ccc(Cn4ccnc4)cn3)cncc2c1 [CHEMBL2011260] |  |  |  |  | pIC50 ([1]; ref Hille et al., 2011a): 7.02; pIC50 ([2]; ref Hille et al., 2011a): 6.04

SMILES | pIC50 ([1]; ref Lucas et al., 2011) | pIC50 ([2]; ref Lucas et al., 2011) | pIC50 ([1]; ref Yin et al., 2012) | pIC50 ([2]; ref Yin et al., 2012) | also measured
c1csc(-c2ccc(Cn3ccnc3)cn2)c1 [CHEMBL2011261] |  |  |  |  | pIC50 ([1]; ref Hille et al., 2011a): 7.12; pIC50 ([2]; ref Hille et al., 2011a): 5.91
Clc1ncc(Cn2ccnc2)cc1-c1cccs1 [CHEMBL2011430] |  |  |  |  | pIC50 ([1]; ref Hille et al., 2011a): 7.14; pIC50 ([2]; ref Hille et al., 2011a): 6.38
c1ccc2c(-c3ccc(Cn4ccnc4)cn3)csc2c1 [CHEMBL2011433] |  |  |  |  | pIC50 ([1]; ref Hille et al., 2011a): 7.40; pIC50 ([2]; ref Hille et al., 2011a): 5.94
c1cn(Cc2ccc(-c3ccoc3)nc2)cn1 [CHEMBL2011435] |  |  |  |  | pIC50 ([1]; ref Hille et al., 2011a): 7.12; pIC50 ([2]; ref Hille et al., 2011a): 5.55
c1coc(-c2cc(Cn3ccnc3)cnc2-c2ccco2)c1 [CHEMBL2011437] |  |  |  |  | pIC50 ([1]; ref Hille et al., 2011a): 7.54; pIC50 ([2]; ref Hille et al., 2011a): 6.08
CC(c1cc2c3c(c1)CCN3C(=O)CC2)n1ccnc1 (centres unmarked) [CHEMBL2163636] |  |  | 7.77 | 7.82 | 
CCC(c1cc2c3c(c1)CCN3C(=O)CC2)n1ccnc1 (centres unmarked) [CHEMBL2163637] |  |  | 8.19 | 8.24 | 
CC(C)C(c1cc2c3c(c1)CCN3C(=O)CC2)n1ccnc1 (centres unmarked) [CHEMBL2163638] |  |  | 8.42 | 8.85 | 
O=C1CCc2cc(C(C3CC3)n3ccnc3)cc3c2N1CC3 (centres unmarked) [CHEMBL2163639] |  |  | 8.66 | 7.62 | 
O=C1CCc2cc(C(C3CCC3)n3ccnc3)cc3c2N1CC3 (centres unmarked) [CHEMBL2163640] |  |  | 8.47 | 8.38 | 
C=C(c1cc2c3c(c1)CCN3C(=O)CC2)n1ccnc1 [CHEMBL2163641] |  |  | 7.72 | 7.00 | 
O=C1CCc2cc(C(c3ccccc3F)n3ccnc3)cc3c2N1CC3 (centres unmarked) [CHEMBL2163642] |  |  | 7.40 | 7.72 | 
O=C1CCc2cc(C(c3cccc(F)c3)n3ccnc3)cc3c2N1CC3 (centres unmarked) [CHEMBL2163643] |  |  | 7.54 | 7.74 | 
O=C1CCc2cc(C(c3ccc(F)cc3)n3ccnc3)cc3c2N1CC3 (centres unmarked) [CHEMBL2163644] |  |  | 7.57 | 7.54 | 
COc1cccc(C(c2cc3c4c(c2)CCN4C(=O)CC3)n2ccnc2)c1 (centres unmarked) [CHEMBL2163645] |  |  | 6.96 | 7.06 | 
O=C1CCc2cc(C(c3ccccc3)n3ccnc3)cc3c2N1CC3 (centres unmarked) [CHEMBL2163649] |  |  | 7.30 | 7.48 | 
O=C1CCc2cc(C(c3ccco3)n3ccnc3)cc3c2N1CC3 (centres unmarked) [CHEMBL2163650] |  |  | 7.70 | 7.33 | 
O=C1CCc2cc(C(c3cccs3)n3ccnc3)cc3c2N1CC3 (centres unmarked) [CHEMBL2163651] |  |  | 7.89 | 7.74 | 
